ChEMBL document CHEMBL3988442, “University of Dundee, Small-Polar-MMV Screening Library” (2021)
Several values for one entry are separate records, joined by “and”; a condition that tells them apart may be missing. Equal entries are not always repeated.

How the values were obtained:
Plasmodium falciparum [1] = assay: Plasmodium falciparum sporozoite viability assay; assay type: functional, organism-based; conditions: for IC50: Plasmodium falciparum
[2] = microbe, parasite or virus in culture; conditions: Mycobacterium tuberculosis, 72 h, read-out: pIC50 (converted)
[3] = microbe, parasite or virus in culture; conditions: Mycobacterium tuberculosis, 96 h, read-out: pIC50 (converted)
[4] = molecular target: T1, Coenzyme A biosynthesis bifunctional protein CoaBC (Mycobacterium tuberculosis (strain ATCC 25618 / H37Rv), UniProt P9WNZ1); assay: Biomol Green assay for MtCoaBC inhibitor, OD650 read; assay type: functional
T1 sequence (P9WNZ1 whole entry): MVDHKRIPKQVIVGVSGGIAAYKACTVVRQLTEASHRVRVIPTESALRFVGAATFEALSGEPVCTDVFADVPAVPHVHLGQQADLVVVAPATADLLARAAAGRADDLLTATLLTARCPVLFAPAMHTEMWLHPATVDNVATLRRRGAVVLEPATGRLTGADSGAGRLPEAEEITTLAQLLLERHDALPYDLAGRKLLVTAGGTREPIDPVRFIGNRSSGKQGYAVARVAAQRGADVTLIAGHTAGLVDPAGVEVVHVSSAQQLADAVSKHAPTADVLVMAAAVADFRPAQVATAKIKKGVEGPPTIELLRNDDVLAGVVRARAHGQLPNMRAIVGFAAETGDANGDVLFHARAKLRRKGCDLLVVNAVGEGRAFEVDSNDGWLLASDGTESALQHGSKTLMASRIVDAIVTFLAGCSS

[5] = In vitro enzyme assay to detect hydrolysis of chlorophenol red-beta-D-[…] directly proportional to the number of Toxoplasma stably expressing beta-galactosidase; assay type: functional, organism-based, Toxoplasma gondii; conditions: Toxoplasma gondii
Plasmodium falciparum [6] = assay: Calibr Malaria Delayed Death Assay SOP; assay type: functional, organism-based; conditions: for IC50: Plasmodium falciparum
Histidine--tRNA ligase = molecular target: T2, Histidine--tRNA ligase (Leishmania infantum, UniProt A4I591); assay: Leishmania infantum Histidine tRNA synthetase (LdHisRS); assay type: functional
T2 sequence (A4I591 whole entry): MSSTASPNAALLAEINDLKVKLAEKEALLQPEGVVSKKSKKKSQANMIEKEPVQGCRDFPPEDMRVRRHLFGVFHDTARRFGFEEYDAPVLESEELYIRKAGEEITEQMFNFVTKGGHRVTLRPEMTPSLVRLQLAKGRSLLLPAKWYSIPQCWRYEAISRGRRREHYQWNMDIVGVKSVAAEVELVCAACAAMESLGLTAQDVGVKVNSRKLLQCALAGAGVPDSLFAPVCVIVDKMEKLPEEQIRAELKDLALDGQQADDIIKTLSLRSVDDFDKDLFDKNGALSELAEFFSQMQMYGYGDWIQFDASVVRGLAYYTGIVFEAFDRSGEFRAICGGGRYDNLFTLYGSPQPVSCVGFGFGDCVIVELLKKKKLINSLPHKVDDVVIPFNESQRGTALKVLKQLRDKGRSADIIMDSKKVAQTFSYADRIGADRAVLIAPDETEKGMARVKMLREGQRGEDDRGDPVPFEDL

Leishmania donovani = assay: Leishmania intramacrophage assay; assay type: functional, organism-based; conditions: Leishmania donovani
Schistosoma mansoni = assay: High throughput screening of compounds against Schistosoma mansoni motility; assay type: functional; parameters: dose or concentration left out as unconfirmed

| SMILES | pIC50 (Plasmodium falciparum [1]) | IC50 (Plasmodium falciparum [1]) [nM] | further results |
| --- | --- | --- | --- |
| CCN1CCN(Cc2coc(-c3cccc(F)c3)n2)CC1 | 6.19 | 800 | – |
| FC(F)(F)Oc1ccc(-c2noc([C@@H]3Cc4nc[nH]c4CN3)n2)cc1 | 6.357 | 221 | IC50 [2]: > 50100 nM; IC50 [3]: > 50100 nM |
| CC(C)c1nc2cc(NC(=O)c3n[nH]c4c3CCC4)ccc2n1C | 6.833 and 6.465 | – | IC50 [4]: > 30200 nM |
| CC(=O)Nc1ncc(S(=O)(=O)Nc2ccc3c(c2)OCCO3)s1 | 6.905 | 144 | IC50 [5]: > 50100 nM |
| CCc1n[nH]c(C(=O)NCCn2nccc2C)c1C | – | > 10500 | – |
| COc1cccc(-c2noc(C3CCN(CC(N)=O)C3)n2)c1 (stereo unspecified) | – | > 10500 | – |
| COC(=O)CSCc1noc(-c2ccc(Cl)cc2)n1 | 6.573 | 454 | IC50 [2]: > 50100 nM; IC50 [3]: > 50100 nM |
| COC(=O)CSCc1noc(-c2ccc(C)cc2)n1 | 6.885 and 7.313 | – | IC50 [2]: 24400 nM; IC50 [3]: > 50100 nM |
| OCC1CCCN1c1cc(NCCc2ccccn2)ncn1 (stereo unspecified) | 7.276 | 51.7 | – |
| OCC1CCCN1c1cc(NCCc2ccsc2)ncn1 (stereo unspecified) | 7.515 | 59.6 | – |
| CC(=O)N1Cc2ccccc2CC1C(=O)Nc1cc(C)ccn1 (stereo unspecified) | 7.317 | 41.2 | – |
| Cc1cn2c(n1)C(CNCC1=Cc3cc(Cl)ccc3OC1)CCC2 (stereo unspecified) | 5.932 | 908 | pIC50 (Plasmodium falciparum [6]): 5.847; IC50 (Plasmodium falciparum [6]): 1660 nM |
| Cc1cn2c(n1)C(CNCC1=Cc3ccccc3OC1)CCC2 (stereo unspecified) | 7.385 | 62.3 | pIC50 (Plasmodium falciparum [6]): 5.983; IC50 (Plasmodium falciparum [6]): 903 nM |
| CCC(=O)NC1CCCN(C(=O)Nc2cc(-c3ccccc3)on2)C1 (stereo unspecified) | 6.751 | 187 | – |
| Cc1nnc(CN(C)Cc2nc3c(s2)CCCC3)o1 | 5.52 | 3560 | – |
| COc1cc(F)c(NCc2nc3ccccc3n2C)cc1OC | – | 260 | IC50 (Histidine--tRNA ligase): 59700 nM and 57600 nM |
| CCC(CC)c1nnc(NC(=O)N2CCCC(NC(C)=O)C2)s1 (stereo unspecified) | 5.262 and 5.718 | – | – |
| O=C(Nc1ccc(N2CCCC2)nc1)N1CCc2ccccc2C1 | 5.522 | 2030 | – |
| CC(C)C(=O)N1CCN(Cc2csc(-c3ncccn3)n2)CC1 | 5.96 | 1420 | IC50 (Leishmania donovani): > 50100 nM |
| Cc1cncc(NC(=O)c2ccc(CN3CC[C@H](O)C3)cc2)c1 | 6.801 | 80.2 | – |
| COc1ccc2cc(C3CN(C(=O)CN4CCCC4)CCO3)ccc2c1 (stereo unspecified) | 5.408 | 7630 | – |
| CCC1CN(C(=O)c2ccc(O)cn2)CCC(=O)N1Cc1ccccc1 (stereo unspecified) | 5.529 and 5.955 | – | – |
| CN(C)CCNc1ccc(-c2nc(-c3ccccc3F)no2)cn1 | 7.212 and 6.908 | – | – |
| CC(C)(C)c1ncc(C(=O)NCCSc2ccccn2)c(O)n1 | 7.35 | 63.2 | – |

| SMILES | pIC50 (Plasmodium falciparum [1]) | IC50 (Plasmodium falciparum [1]) [nM] | further results |
| --- | --- | --- | --- |
| Cc1ccsc1-c1cccc(-c2ccn(CC3CCNC3)n2)c1 (stereo unspecified) | 5.798 | 2580 | IC50 [2]: 23800 nM; IC50 [3]: 21300 nM |
| C(=C\c1ccc(CN2CCCC2)cn1)/c1ccccc1 | 7.171 | 113 | – |
| COc1ccc2cc(C3CN(C(=O)CCNC(C)=O)CCO3)ccc2c1 (stereo unspecified) | 7.142 | 48.6 | – |
| COCc1noc(-c2ccc(N3CCC[C@H]3CO)nc2)n1 | 7.269 | 60.2 | – |
| COC(=O)CC1CCN(C(=O)Nc2ccc(-c3ccn[nH]3)cc2)C1 (stereo unspecified) | 6.226 | 436 | – |
| CNC(=O)CCC(=O)N1CCOC(c2ccc3cc(OC)ccc3c2)C1 (stereo unspecified) | 7.215 | 83 | – |
| c1cncc(OCc2nc(C3CC3)nn2-c2ccc3c(c2)OCCO3)c1 | 5.428 | 3840 | – |
| Cc1cc(NC(=O)c2ccc(CN3CC[C@H](O)C3)cc2)ccc1F | 7.801 | 15.2 | – |
| Clc1ccc2nc(N3CCC(NCCCC4CCOC4)CC3)sc2c1 (stereo unspecified) | 5.724 | 3770 | – |
| CCCc1cc(CNC2CCN(c3nc4ccccc4s3)CC2)on1 | 5.685 | 1840 | – |
| CSc1ccccc1C(=O)Nc1ccc(OC2CCN(C)CC2)cc1 | 6.337 and 5.999 | – | – |
| CNc1cc(C)nc(N2C[C@@H](C(=O)O)[C@H](C3CC3)C2)n1 | 5.907 | 989 | – |
| Cn1c(-c2cc3n(n2)CCCN(CC(=O)O)C3)nc2ccccc21 | 5.921 and 6.257 | – | – |
| CN1CCCC1CCn1ccnc1-c1nc(-c2ccccc2)no1 (stereo unspecified) | 6.882 | 71.6 | – |
| CO[C@H]1C[C@@H](O)C12CCN(C(=O)CCCOc1ccccc1)CC2 | 6.089 and 6.557 | – | – |
| COc1cc(NC(=O)c2ccc(CN3CC[C@H](O)C3)cc2)cc(OC)c1 | 6.645 | 175 | – |
| COc1ccc2cc(C3CN(C(=O)N(C)C)CCO3)ccc2c1 (stereo unspecified) | 7.993 | 14.9 | – |
| CSc1ccc(-c2nc(CN3CCC(NC(C)=O)C3)c(C)o2)cc1 (stereo unspecified) | 6.077 | 533 | – |
| CC(C)(C)n1cc(C2=CCN(CCc3ccccc3)CC2)cn1 | 5.875 | 1530 | pIC50 (Plasmodium falciparum [6]): 6.257; IC50 (Plasmodium falciparum [6]): 571 nM; Percent Effect (Schistosoma mansoni): 26.35% |
| Cc1cccc(C(=O)Nc2ccc(OC3CCN(C)CC3)cc2)c1 | 7.031 | 119 | – |
| COc1cccc(-c2noc(C3CCN(Cc4cn(C)nc4C)C3)n2)c1 (stereo unspecified) | 5.995 | 863 | – |
| c1cnc(-c2nc(CN3CCN(CC4CC4)CC3)cs2)nc1 | 5.511 | 2260 | IC50 (Leishmania donovani): > 50100 nM |
| CC(C)c1nc2c(n1C)CCN(Cc1nc(-c3ccoc3)no1)C2 | 5.631 | 3150 | – |
| CCc1noc(CN(Cc2ccc3c(c2)OCO3)C2CCCC2)n1 | 5.474 and 5.085 | – | – |

| SMILES | pIC50 (Plasmodium falciparum [1]) | IC50 (Plasmodium falciparum [1]) [nM] | further results |
| --- | --- | --- | --- |
| Cn1cnc2c1CCN(Cc1csc(-c3ccccc3F)n1)C2 | 6.45 | 363 | – |
| CCn1ncc2c1CCCC2NCc1cccc2c1OCO2 (stereo unspecified) | 5.451 | 4370 | – |
| CC(=O)Nc1nc(C(=O)N2CCCC(n3cncn3)C2)cs1 (stereo unspecified) | 5.727 | 3370 | – |
| Cc1cc(C)n(CC2CN(Cc3nc4ccccc4s3)CCO2)n1 (stereo unspecified) | 6.064 | 1720 | – |
| CCn1cc(NC(=O)Nc2ccc3c(c2)OCCO3)cn1 | 7.305 and 6.856 | – | – |
| CC(C)(C)c1cn2nc(N3CCCC(Cn4cncn4)C3)sc2n1 (stereo unspecified) | 4.991 | > 10500 | – |
| c1ccc2sc(CN3CCCC3c3noc(C4CC4)n3)nc2c1 (stereo unspecified) | 5.79 and 6.107 | – | – |
| CC1CCCN(Cc2csc(-c3ncccn3)n2)CC1 (stereo unspecified) | 5.365 | 4800 | – |
| CC(C)c1nc2c(n1C)CCN(Cc1nc(-c3ccsc3)no1)C2 | 5.081 and 5.405 | – | – |
| CN1CCOC(CNC(=O)CCCOc2ccccc2F)C1 (stereo unspecified) | 5.757 and 6.214 | – | – |
| Cc1c(F)cc(C(=O)O)cc1S(=O)(=O)Nc1ccc2c(c1)OCCO2 | 5.599 | 3790 | – |
| c1ccc(-c2noc(CN3CCc4cncnc4C3)n2)nc1 | 5.93 and 5.587 | – | – |
| CC(C)c1n[nH]c(C(=O)Nc2ccnn2C(C)C)c1Br | 6.017 | 970 | – |
| Cn1cnnc1C1CCN(C(=O)CCCOc2ccccc2F)CC1 | 6.053 | 1300 | – |
| c1ccc2sc(CN3CCOC(Cn4cccn4)C3)nc2c1 (stereo unspecified) | 6.078 and 6.413 | – | – |
| c1ccc2sc(CN3CCOC(Cn4cncn4)C3)nc2c1 (stereo unspecified) | 6.123 | 621 | – |
| c1ccc(-c2nc(CN3CCc4c(ncn4C4CC4)C3)cs2)cc1 | 5.414 | 2990 | – |
| O=C(Cc1ccc2c(c1)OCCO2)N1CCCC(n2cccn2)C1 (stereo unspecified) | < 4.98 and 5.311 | – | – |
| c1cc(OCc2ccc3c(c2)OCO3)ccc1CNC1CC1 | – | > 10500 | – |
| Cl.Clc1ccc(-c2ccc(C3CNCCO3)nc2)cc1 (stereo unspecified) | – | 75 | pIC50 (Plasmodium falciparum [6]): 6.505; IC50 (Plasmodium falciparum [6]): 433 nM |
| COc1ccc(-c2ccc(C3CNCCO3)nc2)cc1.Cl (stereo unspecified) | 7.404 | 73 | pIC50 (Plasmodium falciparum [6]): 6.456; IC50 (Plasmodium falciparum [6]): 190 nM |
| Cc1ccc(-c2ccc(C3CNCCO3)nc2)cc1.Cl (stereo unspecified) | 7.716 | 23.1 | pIC50 (Plasmodium falciparum [6]): 6.712; IC50 (Plasmodium falciparum [6]): 108 nM |
| O=C(Nc1cccnc1)C1Cc2nc(-c3ccsc3)sc2N1CC1CC1.O=C(O)C(F)(F)F (stereo unspecified) | 5.393 | 3000 | IC50 (Histidine--tRNA ligase): 27400 nM and 35200 nM |
| CN(C)CCNC(=O)C1Cc2nc(-c3ccccc3)sc2N1CC1CC1 (stereo unspecified) | – | 3590 | IC50 [2]: > 50100 nM; IC50 [3]: > 50100 nM |
